Source: patent publication US20160030415A1, “TREATMENT AND PROPHYLAXIS OF KIDNEY DISEASES” (priority 2013, published 2016)

Test system: Streptozocin (STZ) induced diabetic rats
Experiment: Study 1: HCQ and its combination with Losartan in renal damage, comparison with diabetic control
Type: in vivo, Wistar rats
Details: after 8 weeks oral once daily, Losartan 5.5 mg/kg, Hydroxychloroquine 22.5 mg/kg; for GSH (% Naive) / GSH Mean ± SEM / TBARS (% Naive) / TBARS Mean ± SEM: kidney homogenate
Protocol: The Efficacy of the drugs was tested in two different models, one involving comparison with diabetic control (i.e. Diabetic Rats not treated with any medication) and the other involving comparison with the anti-diabetic control group (i.e. Diabetic rats administered Glimepiride) in two separate studies. 25 male Wistar rats weighing 150-250 g were divided randomly into 5 groups consisting of 5 animals each. Diabetes was induced in rats by single administration of streptozotocin (55 mg/kg/i.p) dissolved in 0.1 M-citrate buffer, pH 4.5. Group 1 (normal control) consisted of normal rats that neither received Streptozotocin (STZ) nor any test drug; Group 2 served as streptozotocin induced diabetic control. Group 3 was diabetic rats treated with Losartan (LT) (5.5 mg/kg); Group 4 was diabetic rats treated with Hydroxychloroquine (HCQ) (22.5 mg/kg), Group 5 was diabetic rats treated with combination of HCQ (22.5 mg/kg) and LT (5.5 mg/kg). The study drugs were dissolved/suspended in distilled water and administered orally once a day for eight weeks. Blood glucose levels and renal oxidative stress parameters including TBARS, GSH and total Protein in Kidney Homogenate were assessed after the completion of eighth week of the study.

| Compound | Blood glucose level (% Control) | Blood glucose level Mean ± SEM | Total Protein in Kidney Homogenate (% Naive) | Total Protein in Kidney Homogenate Mean ± SEM | GSH (% Naive) | GSH Mean ± SEM | TBARS (% Naive) | TBARS Mean ± SEM |
| --- | --- | --- | --- | --- | --- | --- | --- | --- |
| CCN(CCO)CCCC(C)Nc1ccnc2cc(Cl)ccc12 (stereo not shown) [Hydroxychloroquine, 2-[{4-[(7-chloroquinolin-4-yl)amino]pentyl}(ethyl)amino]ethanol] | (62.64)) % Control | 369.9 ± 42.3 mg/dL | (190.71) % Naive | 1098.00 ± 23.12 µg/mL | (41.92) % Naive | 0.827 ± 0.08 nM/mg | (178.29) % Naive | 0.772 ± 0.06 nM/mg |
| CCCCc1nc(Cl)c(CO)n1Cc1ccc(-c2ccccc2-c2nn[nH]n2)cc1 [Losartan] | (98.57) % Control | 582.1 ± 00^ mg/dl | (204.95) % Naive | 1180.00 µg/mL | (41.92) % Naive | 0.827 nM/mg | (186.61) % Naive | 0.808 nM/mg |
